Reference: article PMC9403987 (Frontiers in Oncology, 2022)

How the values were obtained:
[1] = biological target: T1, CDK4–cyclin D1 (Homo sapiens, UniProt P11802); test: LANCE Ultra TR-FRET enzymatic profiling assay; format: biochemical
T1 construct: purchased Invitrogen
Procedure: Results were calculated as half-maximal inhibitory concentration (IC50) and inhibition constant (K i). IC50 and K i values were determined using the XLfit 205 model (ID Business Solutions Ltd, Guildford, UK) curve-fitting add-on for Microsoft Excel (Microsoft Corporation, Redmond, WA, USA).

[2] = test system: NCI-H2228; test: Subcutaneous NCI-H2228 non-small cell lung cancer xenograft; format: in vivo, BALB/c nude mice; settings: 50 mg/kg daily oral, 28 days, measured day 34
Procedure: The efficacy of GLR2007 was evaluated in human GBM and breast cancer orthotopic cell-line-derived xenografts in NOD/SCID mice (Shanghai Lingchang Biotechnology Co. Ltd, Shanghai, China) and BALB/c nude mice (Shanghai Sino-British SIPPR/BK Laboratory Animal Co. Ltd, Shanghai, China), and human lung, colorectal, and liver cancer subcutaneous cell-line-derived xenografts in BALB/c nude mice (Nanjing University National Resource Center, Nanjing, China, or Beijing Anikeeper Biotech Co., Beijing, China). Mice were maintained in humidity- and temperature-controlled conditions with food and water available ad libitum. For subcutaneous models, female BALB/c nude mice were inoculated at 4–8 weeks old with 3×10^6–1×10^7 tumor cells (see Table 1 for xenograft model cell types) in the right flank for tumor development. Randomization was performed when the mean tumor volume reached 118–171 mm^3.

[3] = test system: BRL; test: Cell proliferation assay; format: cell-based, Rattus norvegicus; settings: liver, normal, 72 hours
Procedure: (§1) To quantify cell proliferation, either the nuclei of live cells were counted following staining with 4’,6-diamidino-2-phenylindole (DAPI; Sigma-Aldrich, Burlington, MA, USA), or metabolically active cells were detected using a CellTiter-Glo assay (Promega Corporation, Madison, WI, USA). Cells from a range of human and mammalian tumor cell lines (American Type Culture Collection, Manassas, VA, USA) were seeded at 4000 cells per well in 100 μL of culture medium in a 96-well plate and incubated overnight at 37°C with 5% CO2. […] In the DAPI staining method, cells were washed using 1× phosphate-buffered saline (PBS; Gibco Thermo Fisher Scientific, Waltham, MA, USA), fixed with 4% formaldehyde, permeabilized with 0.2% Triton X-100 (Sigma-Aldrich), washed again, and stained with 1 μg/mL DAPI to visualize cell nuclei. Cells were washed with 1× PBS three times, and 100 μL 1× PBS was added to each well. Plates were scanned using an IN Cell Analyzer 2200 (GE Healthcare Life Sciences, Chicago, IL, USA) and the number of cells per well was recorded. In the CellTiter-Glo assay, 60 μL of CellTiter-Glo luminescent solution was added to each well after incubation with the test compounds, and the assay plate was scanned using a Tecan Infinite M1000 PRO microplate reader (Tecan Group AG, Männedorf, Switzerland) to record luminescent signals.

[4] = biological target: T2, CDK6–cyclin D1 (Homo sapiens, UniProt Q00534); test: LANCE Ultra TR-FRET enzymatic profiling assay; format: biochemical
T2 construct: purchased Invitrogen
T2 sequence (Q00534 whole entry): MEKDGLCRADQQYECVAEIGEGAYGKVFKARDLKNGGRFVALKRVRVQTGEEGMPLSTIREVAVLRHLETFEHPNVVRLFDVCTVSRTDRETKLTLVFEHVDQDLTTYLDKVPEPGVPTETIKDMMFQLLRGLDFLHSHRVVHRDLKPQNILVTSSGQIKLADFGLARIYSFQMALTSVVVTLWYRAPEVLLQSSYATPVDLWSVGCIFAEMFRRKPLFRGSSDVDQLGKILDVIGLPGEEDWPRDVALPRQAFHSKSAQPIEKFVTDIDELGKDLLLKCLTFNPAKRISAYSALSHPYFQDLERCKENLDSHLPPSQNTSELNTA
T2 sequence (P24385 whole entry partner): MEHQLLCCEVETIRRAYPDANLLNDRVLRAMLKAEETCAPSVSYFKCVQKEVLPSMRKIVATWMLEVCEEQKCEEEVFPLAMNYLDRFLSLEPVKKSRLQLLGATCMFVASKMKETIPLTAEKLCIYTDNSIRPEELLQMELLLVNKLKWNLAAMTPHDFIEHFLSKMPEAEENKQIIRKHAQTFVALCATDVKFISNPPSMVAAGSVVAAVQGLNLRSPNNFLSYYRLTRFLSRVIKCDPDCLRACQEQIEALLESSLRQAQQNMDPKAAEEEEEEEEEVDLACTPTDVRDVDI
Procedure: Results were calculated as half-maximal inhibitory concentration (IC50) and inhibition constant (K i).

[5] = test system: CT26.WT; test: Cell proliferation assay; format: cell-based, Mus musculus; settings: colorectal carcinoma, 72 hours
Procedure: as §1

[6] = test system: PLC/PRF/5; test: Cell proliferation assay; format: cell-based, Homo sapiens; settings: PLC/PRF/5, liver, hepatocellular carcinoma, 72 hours
Outline: (§2)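 Either DAPI nuclear counting from plate imaging or CellTiter-Glo luminescence served to quantify growth of cells seeded at 4000 per well and pre-incubated overnight (37°C, 5% CO2) before test compounds were added.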

[7] = test system: Colo320DM; test: Cell proliferation assay; format: cell-based, Homo sapiens; settings: colon carcinoma, 72 hours
Outline: as §2

T1 sequence (P11802 whole entry): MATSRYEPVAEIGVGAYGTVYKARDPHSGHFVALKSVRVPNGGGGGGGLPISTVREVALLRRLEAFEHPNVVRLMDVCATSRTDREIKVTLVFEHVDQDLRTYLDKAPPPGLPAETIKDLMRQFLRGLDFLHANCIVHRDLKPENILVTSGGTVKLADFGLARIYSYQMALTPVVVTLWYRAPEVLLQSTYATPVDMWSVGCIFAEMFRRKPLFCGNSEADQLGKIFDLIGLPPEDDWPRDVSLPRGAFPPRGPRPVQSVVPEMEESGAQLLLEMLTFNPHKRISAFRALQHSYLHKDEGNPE
T1 sequence (P24385 whole entry partner): as the sequence (P24385 whole entry partner) above

Question: How did the Ki ([1]; CDK4/CyD1) turn out when `CC1=Nc2c(F)cc(-c3nc(Nc4ccc(C5CCN(C)CC5)cn4)ncc3F)cc2C12CCCC2` [GLR2007] was run?
Answer: The Ki was less than 0.1 nM.

Question: And the IC50 ([1]; CDK4/CyD1, 11 concentrations in duplicates)?
Answer: Its IC50 is 0.22 nM.

Question: What about the “TGI (%)” value [2] of the same compound?
Answer: Its value is 33.9%.

Question: And the IC50 [3]?
Answer: The IC50 was 2120 nM.

Question: And the Ki ([4]; CDK6/CyD1)?
Answer: Its Ki is less than 0.08 nM.

Question: And the IC50 ([4]; CDK6/CyD1, 11 concentrations in duplicates)?
Answer: The IC50 was 0.53 nM.

Question: And the IC50 [5]?
Answer: The IC50 was 2020 nM.

Question: And the IC50 [6]?
Answer: Its IC50 is 302 nM.

Question: What about the IC50 [7] of the same compound?
Answer: Its IC50 is 1140 nM.
